Literature values, collected in article PMC6698915 (Cancer chemotherapy and pharmacology, 2015).

Test system: patients with locally advanced (M0) head and neck cancer
Conditions: with cisplatin and docetaxel 75 mg/m^2 q21 days, pegfilgrastim, previously untreated; cited from earlier work

CO[C@H]1C[C@@H]2CC[C@@H](C)[C@@](O)(O2)C(=O)C(=O)N2CCCC[C@H]2C(=O)O[C@H]([C@H](C)C[C@@H]2CC[C@@H](OCCO)[C@H](OC)C2)CC(=O)[C@H](C)/C=C(\C)[C@@H](O)[C@@H](OC)C(=O)[C@H](C)C[C@H](C)/C=C/C=C/C=C/1C [everolimus]
escalation to full dose of daily everolimus: not possible to escalate to full dose of daily everolimus due to dose-limiting neutropenia
